Patent US20230365568A1, “PLK1 POLO BOX DOMAIN INHIBITORS AND METHOD OF TREATING CANCER” (The United States of America,as represented by the …, priority 2020, published 2023)
Where two headings read alike, the source gives them in different places.

What was measured:
full-length human Plk1 = full-length human Plk1 (Homo sapiens (Human), UniProt P53350); experiment: ELISA-based Plk1 PBD-binding inhibition assay; settings: for IC50: Plk1 PBD, n = 3 unless noted
Experimental: An ELISA-based PBD-binding inhibition assay was performed essentially as described previously. […] The wells were washed once with PBS+0.05% Tween20 (PBST) and incubated with 200 μl of PBS plus 1% BSA (blocking buffer) for 1 h to prevent non-specific binding. HEK293A lysates expressing HA-EGFP-Plk1 were prepared in a TBSN [20 mM Tris-HCl (pH 8.0), 150 mM NaCl, 0.5% NP-40, 5 mM EGTA, 2 mM MgCl2, 1.5 mM EDTA, and protease inhibitor cocktail (Roche)]+20% DMSO buffer (˜20 μg total lysates in 100 μl buffer), mixed with the indicated amount of the competitors (p-T78 peptide and its derivative compounds) for 30 min, provided onto the biotinylated peptide-coated ELISA wells, and then incubated with constant rocking for 1 h at 25° C. Following the incubation, ELISA plates were washed 5 times with PBST. To detect bound HA-EGFP-Plk1, the plates were probed for 2 h with 100 μl/well of anti-HA antibody at a concentration of 0.5 μg/ml in the blocking buffer and then washed 5 times. The plates were further probed for 1 h with 100 μl/well of HRP-conjugated secondary antibody (GE Healthcare) at a 1:1,000 dilution in the blocking buffer. The plates were washed 5 times with PBST and incubated with 100 μl/well of 3,3′,5,5′-tetramethylbenzidine solution (Sigma-Aldrich, St. Louis, MO) as substrate until a desired absorbance was reached. The reactions were stopped by the addition of 100 μl/well of stop solution (Cell Signaling Technology, Danvers, MA). The optical density (O.D.) was measured at 450 nm by using a Perkin-Elmer Enspire Multimode Plate reader (PerkinElmer, Inc., Boston, MA). Data obtained from more than three independent experiments were analyzed by GraphPad (San Diego, CA) Prism software version 7.
ELISA-based PBD-binding Inhibition Assay. […] The reaction products were measured at 450 nm by using a Perkin-Elmer Enspire Multimode Plate reader (PerkinElmer, Inc., Boston, MA). Data obtained from more than three independent experiments were analyzed by GraphPad (San Diego, CA) Prism software version 7.

Aqueous solubility = settings: for Solub.: aqueous solubility
[1] = Microsomal metabolic stability, rat liver microsomes (RLM); settings: rat liver microsomes
[2] = system: multiple myeloma-derived L363 cells; experiment: MTS cell proliferation assay in L363 cells; type: cell-based; settings: Homo sapiens, L-363, 48 h treatment, read-out: Cell efficacy, GI50 ± sd
Experimental: MTS Assay. […] 96™ AQueous One Solution Cell Proliferation Assay (MTS) kit (Promega, WI). Briefly, asynchronously growing L363 cells cultured in a 96-well plate were treated with the indicated compounds for 48 h.

Chain of full-length human Plk1 (P53350 whole entry): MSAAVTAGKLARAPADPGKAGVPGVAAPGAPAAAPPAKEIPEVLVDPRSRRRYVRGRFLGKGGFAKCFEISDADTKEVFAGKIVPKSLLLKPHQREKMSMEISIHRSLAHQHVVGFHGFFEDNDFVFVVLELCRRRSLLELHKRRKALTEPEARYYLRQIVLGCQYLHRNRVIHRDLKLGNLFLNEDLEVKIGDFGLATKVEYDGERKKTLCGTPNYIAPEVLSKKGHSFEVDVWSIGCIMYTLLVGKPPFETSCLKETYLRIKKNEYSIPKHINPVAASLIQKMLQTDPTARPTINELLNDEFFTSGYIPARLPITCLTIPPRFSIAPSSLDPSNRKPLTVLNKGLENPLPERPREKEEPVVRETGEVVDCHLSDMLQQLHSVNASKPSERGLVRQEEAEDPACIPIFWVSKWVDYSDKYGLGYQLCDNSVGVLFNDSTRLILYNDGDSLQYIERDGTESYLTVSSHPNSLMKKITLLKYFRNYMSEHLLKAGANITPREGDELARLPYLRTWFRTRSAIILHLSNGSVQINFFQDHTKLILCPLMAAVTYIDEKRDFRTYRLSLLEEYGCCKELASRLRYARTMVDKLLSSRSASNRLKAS

Row | SMILES | Solub. (Aqueous solubility) [µg/mL] | PAMPA (PAMPA permeability) [nm/s] | t1/2 (min, RLM) [1] [min] | also measured
1 | C=CCn1c(=O)c2ccccc2n2c(=S)[nH]nc12 [compound 22] | 19.4 |  |  | IC50 (full-length human Plk1): 1.31 ± 0.03 µM
2 | O=C(Cc1ccccn1)NCCCn1c(=O)c2cc(F)ccc2n2c(=S)[nH]nc12 [compound 136, N-(3-(7-Fluoro-5-oxo-1-thioxo-1,2-dihydro-[1,2,4]triazolo[4,3-a]quinazolin-4(5H)-yl)propyl)-2-(pyridine-2-yl)acetamide] | 41.4 | 680 | >30 | 
3 | Cc1cccc(-n2c(=O)c3ccccc3n3c(=S)[nH]nc23)c1C [compound 33] |  |  |  | IC50 (full-length human Plk1): 1.85 ± 0.12 µM
4 | Cc1ccc(CC(=O)NCCCn2c(=O)c3cc(F)ccc3n3c(=S)[nH]nc23)cc1 [compound 126, N-(3-(7-fluoro-5-oxo-1-thioxo-1,2-dihydro-[1,2,4]triazolo[4,3-a]quinazolin-4(5H)-yl)propyl)-2-(p-tolyl)acetamide] | 12.9 | 6210 | 23.9 | 
5 | CCCCCn1c(=O)c2ccccc2n2c(=S)[nH]nc12 [compound 24] | 4.2 |  |  | IC50 (full-length human Plk1): 1.97 ± 0.11 µM
6 | O=C(Cc1ccncc1)NCCCn1c(=O)c2cc(F)ccc2n2c(=S)[nH]nc12 [compound 138, N-(3-(7-fluoro-5-oxo-1-thioxo-1,2-dihydro-[1,2,4]triazolo[4,3-a]quinazolin-4(5H)-yl)propyl)-2-(pyridine-4-yl)acetamide] | 9.6 | <10 | >30 | 
7 | CCCCn1c(=O)c2ccccc2n2c(=S)[nH]nc12 [compound 23] | 8.5 |  | >30 | PAMPA: 775 nm/s; IC50 (full-length human Plk1): 1.03 ± 0.14 µM
8 | O=C(Cc1ccc(Br)cc1)NCCCn1c(=O)c2cc(F)ccc2n2c(=S)[nH]nc12 [compound 125, 2-(4-bromophenyl)-N-(3-(7-fluoro-5-oxo-1-thioxo-1,2-dihydro-[1,2,4]triazolo[4,3-a]quinazolin-4(5H)-yl)propyl)acetamide] | <1 | 7670 | 20.6 | 
9 | O=C(Cc1ccccc1C(F)(F)F)NCCCn1c(=O)c2cc(F)ccc2n2c(=S)[nH]nc12 [compound 131, N-(3-(7-fluoro-5-oxo-1-thioxo-1,2-dihydro-[1,2,4]triazolo[4,3-a]quinazolin-4(5H)-yl)propyl)-2-(2-(trifluoromethyl)phenyl)acetamide] | 40.3 | 8250 | 3.7 | 
10 | CCOCCCn1c(=O)c2ccccc2n2c(=S)[nH]nc12 [compound 29] | 15.5 |  |  | lower IC50 compared to 14 (full-length human Plk1; ELISA assay): 29%; IC50 (full-length human Plk1): 1.68 ± 0.11 µM
11 | COc1ccccc1CC(=O)NCCCn1c(=O)c2cc(F)ccc2n2c(=S)[nH]nc12 [compound 128, N-(3-(7-fluoro-5-oxo-1-thioxo-1,2-dihydro-[1,2,4]triazolo[4,3-a]quinazolin-4(5H)-yl)propyl)-2-(2-methoxyphenyl)acetamide] | >65 | 3790 | 16.1 | 
12 | O=C(Cc1ccccc1)NCCCn1c(=O)c2cc(F)ccc2n2c(=S)[nH]nc12 [compound 120, N-(3-(7-fluoro-5-oxo-1-thioxo-1,2-dihydro-[1,2,4]triazolo[4,3-a]quinazolin-4(5H)-yl)propyl)-2-phenylacetamide] | 31.7 | 2480 | 18.7 | 
13 | CCCn1c(=O)c2sc(C)cc2n2c(Sc3c([N+](=O)[O-])ncn3C)nnc12 [75 (NCK173), 7-methyl-1-((1-methyl-4-nitro-1H-imidazol-5-yl)thio)-4-propylthieno[2,3-e][1,2,4]triazolo[4,3-a]pyrimidin-5(4H)-one] |  |  |  | GI50 [2]: 4.14 ± 0.31 µM
14 | O=C(Cc1cccc(F)c1)NCCCn1c(=O)c2cc(F)ccc2n2c(=S)[nH]nc12 [compound 122, N-(3-(7-fluoro-5-oxo-1-thioxo-1,2-dihydro-[1,2,4]triazolo[4,3-a]quinazolin-4(5H)-yl)propyl)-2-(3-fluorophenyl)acetamide] | >63 | 3640 | 26.5 | 
15 | N#Cc1ccccc1CC(=O)NCCCn1c(=O)c2cc(F)ccc2n2c(=S)[nH]nc12 [compound 133, 2-(2-cyanophenyl)-N-(3-(7-fluoro-5-oxo-1-thioxo-1,2-dihydro-[1,2,4]triazolo[4,3-a]quinazolin-4(5H)-yl)propyl)acetamide] | 20.9 | 1560 | >30 | 
16 | CCCn1c(=O)c2ccccc2n2c(=S)n(CC(=O)c3ccccc3)nc12 [compound 39] |  |  |  | IC50 (full-length human Plk1): > 50 µM
17 | Cc1cc2c(s1)c(=O)n(CC1CC1)c1nnc(Sc3c([N+](=O)[O-])ncn3C)n21 [85 (NCK182), 4-(cyclopropylmethyl)-7-methyl-1-((1-methyl-4-nitro-1H-imidazol-5-yl)thio)thieno[2,3-e][1,2,4]triazolo[4,3-a]pyrimidin-5(4H)-one] |  |  |  | GI50 [2]: 3.11 µM
18 | O=C(Cc1cccc(Cl)c1)NCCCn1c(=O)c2cc(F)ccc2n2c(=S)[nH]nc12 [compound 124, 2-(3-chlorophenyl)-N-(3-(7-fluoro-5-oxo-1-thioxo-1,2-dihydro-[1,2,4]triazolo[4,3-a]quinazolin-4(5H)-yl)propyl)acetamide] | >66 | 8610 | 8.4 | 
19 | O=c1c2cc(F)ccc2n2c(=S)[nH]nc2n1CCN1CCCCC1 [compound 88] | 2.4 |  | >30 | PAMPA: 3580 nm/s
20 | O=C(Cc1cccnc1)NCCCn1c(=O)c2cc(F)ccc2n2c(=S)[nH]nc12 [compound 137, N-(3-(7-Fluoro-5-oxo-1-thioxo-1,2-dihydro-[1,2,4]triazolo[4,3-a]quinazolin-4(5H)-yl)propyl)-2-(pyridine-3-yl)acetamide] | 31.8 | 210 | >30 | 
21 | O=c1c2cc(F)ccc2n2c(=S)[nH]nc2n1CCC(F)(F)F [compound 65] | 17.3 |  | >30 | PAMPA: 1170 nm/s; PAMPA permeability (pH 7.4): moderate to good permeability; solubility (Aqueous solubility): moderate to good solubility
22 | COCCCn1c(=O)c2ccccc2n2c(=S)[nH]nc12 [compound 28] | 31.2 |  |  | IC50 (full-length human Plk1): 1.75 ± 0.19 µM
23 | O=C(CN1CCOCC1)NCCCn1c(=O)c2cc(F)ccc2n2c(=S)[nH]nc12 [compound 118] | >62 |  | >30 | PAMPA: <10 nm/s
24 | O=C(O)CCC(=O)NCCCn1c(=O)c2cc(F)ccc2n2c(=S)[nH]nc12 [compound 106] | >58 |  | >30 | PAMPA: <10 nm/s
25 | CC(C)CCn1c(=O)c2ccccc2n2c(=S)[nH]nc12 [compound 25] | 8.0 |  |  | IC50 (full-length human Plk1): 1.73 ± 0.08 µM
26 | O=c1c2cc(F)ccc2n2c(=S)[nH]nc2n1CCc1ccc(Cl)cc1 [compound 82] | 1.2 |  | >30 | PAMPA: <10 nm/s
27 | O=c1c2cc(F)ccc2n2c(=S)[nH]nc2n1CCC1CCC(F)(F)CC1 [compound 93] | <1 |  | >30 | PAMPA: 2010 nm/s
28 | CC(CN(C)C)n1c(=O)c2cc(F)ccc2n2c(=S)[nH]nc12 (stereo not drawn) [compound 71] | >47 |  | >30 | PAMPA: 1860 nm/s
29 | CC(C)(C)OC(=O)Nc1ccc(CC(=O)NCCCn2c(=O)c3cc(F)ccc3n3c(=S)[nH]nc23)cc1 [compound 135, tert-butyl (4-(2-((3-(7-fluoro-5-oxo-1-thioxo-1,2-dihydro-[1,2,4]triazolo[4,3-a]quinazolin-4(5H)-yl)propyl)amino)-2-oxoethyl)phenyl)carbamate] | 17.4 | 9100 | >30 | 
